Source: patent US20240209011A1, “HETEROAROMATIC PHOSPHONIUM SALTS FOR TREATING CANCER” (FLORATEK PHARMA S.A., priority 2021, published 2024)

Key:
panel of 30 kinases = experiment: KINOMEscan primary screen; type: binding; conditions: % Ctrl between 0 and 10 selected for Kd
Procedure: (§1) Selected compounds were screened for kinase inhibition using the KINOMEscan™ assay (Eurofins) which is based on a competition binding assay that quantitatively measures the ability of a compound to compete with an immobilized, active-site directed ligand. The assay was performed by combining three components: DNA-tagged kinase; immobilized ligand; and the test compound. The ability of the test compound to compete with the immobilized ligand was measured via quantitative PCR of the DNA tag.
Kinase-tagged T7 phage strains were prepared in an E. coli host derived from the BL21 strain. E. coli were grown to log-phase and infected with T7 phage and incubated with shaking at 32° C. until lysis. The lysates were centrifuged and filtered to remove cell debris. The remaining kinases were produced in HEK-293 cells and subsequently tagged with DNA for qPCR detection. Streptavidin-coated magnetic beads were treated with biotinylated small molecule ligands for 30 minutes at room temperature to generate affinity resins for kinase assays. The liganded beads were blocked with excess biotin and washed with blocking buffer (SeaBlock (Pierce), 1% BSA, 0.05% Tween 20, 1 mM DTT) to remove unbound ligand and to reduce non-specific binding. Binding reactions were assembled by combining kinases, liganded affinity beads, and test compounds in 1× binding buffer (20% SeaBlock, 0.17×PBS, 0.05% Tween 20, 6 mM DTT). Test compounds were prepared as 111× stocks in 100% DMSO. Kds were determined using an 11-point 3-fold compound dilution series with three DMSO control points. All compounds for Kd measurements are distributed by acoustic transfer (non-contact dispensing) in 100% DMSO. The compounds were then diluted directly into the assays such that the final concentration of DMSO was 0.9%. All reactions performed in polypropylene 384-well plate. Each was a final volume of 0.02 ml. The assay plates were incubated at room temperature with shaking for 1 hour and the affinity beads were washed with wash buffer (1×PBS, 0.05% Tween 20). […] The kinase concentration in the eluates was measured by qPCR. […]

lung PDX = experiment: Activity against lung PDX; type: cell-based; conditions: lung PDX growth; Table 16
Procedure: (§2) PDX-derived cell cultures were obtained from tumors explanted from mice and isolated by mechanical and enzymatic dissociation. […] Cells were harvested and seeded in 96-wells plates at a density of 1.25 to 5×10^3 cells/well for cytotoxicity assays. Cells were incubated 48 h at 37° C. prior to addition of test molecules and vehicle (DMSO, 0.1%) at desired final concentrations. Cell viability was assessed before drugs' addition (To) and 5 days after test molecules addition by measuring ATP cell content using CellTiter-Glo® Luminescent Cell Viability Assay (Promega) according to the manufacturer's instructions. Luciferase activity was measured on a luminometer (PerkinElmer® EnVision™). Each concentration of compounds was tested in triplicate.
(§3) Viability was calculated as a percentage of ATP value compared to vehicle treated controls.
(§4) For PDX primary cell cultures, the tumour tissue was washed with PBS containing antibiotic-antimycotic and non-tumour tissue and necrotic tumour tissues were separated. The tumour tissue was transferred to a new dish and cut into 1-2 mm^3 fragments, resuspended in RPMI-1640 medium and centrifuged at 1,200 rpm for 6 min at room temperature. The pelleted material was resuspended with 15 mL of Tumour Cell Digestion Solution and incubated at 37° C. for 1 hour with agitation. Following further addition of media, centrifugation and passage through a […] cell strainer, the homogenous cell mixture was layered onto 15 mL of Ficoll-Paque PLUS in a 50 mL conical tube and centrifuged for 15 min at 1,600 rpm. The interface cells were collected, washed with media, separated by centrifugation at 1,200 rpm. The cell pellet was resuspended in serum free media supplemented with growth factors. 10,000 cells/wells were plated in a 96 well plate and incubated at 37° C., 5% CO2, 95% air and 100% relative humidity overnight. The cytotoxicity assay was conducted as above. IC50 values represent absolute IC50.

EN-11-0101 = experiment: PDX-derived cell culture cytotoxicity (CellTiter-Glo); type: cell-based; conditions: 120 h; endometrial PDX EN-11-0101; absolute IC50; 5 days
Procedure: as §2, §3, §4

ST-02-0012 = experiment: as above; type: cell-based; conditions: 120 h; stomach PDX ST-02-0012; absolute IC50; 5 days
Procedure: as §2, §3, §4

CO-04-0701 = experiment: as above; type: cell-based; conditions: 120 h; colon PDX CO-04-0701; absolute IC50; 5 days
Procedure: as §2, §3, §4

ADCK3 = molecular target: T1, ADCK3 (Homo sapiens, UniProt Q8NI60); experiment: KINOMEscan competition binding assay, Kd; conditions: 11-point 3-fold dilution series
T1 construct: purchased Eurofins (KINOMEscan); host or cells: T7 phage in BL21-derived E. coli, or HEK-293
T1 sequence (Q8NI60 163-647): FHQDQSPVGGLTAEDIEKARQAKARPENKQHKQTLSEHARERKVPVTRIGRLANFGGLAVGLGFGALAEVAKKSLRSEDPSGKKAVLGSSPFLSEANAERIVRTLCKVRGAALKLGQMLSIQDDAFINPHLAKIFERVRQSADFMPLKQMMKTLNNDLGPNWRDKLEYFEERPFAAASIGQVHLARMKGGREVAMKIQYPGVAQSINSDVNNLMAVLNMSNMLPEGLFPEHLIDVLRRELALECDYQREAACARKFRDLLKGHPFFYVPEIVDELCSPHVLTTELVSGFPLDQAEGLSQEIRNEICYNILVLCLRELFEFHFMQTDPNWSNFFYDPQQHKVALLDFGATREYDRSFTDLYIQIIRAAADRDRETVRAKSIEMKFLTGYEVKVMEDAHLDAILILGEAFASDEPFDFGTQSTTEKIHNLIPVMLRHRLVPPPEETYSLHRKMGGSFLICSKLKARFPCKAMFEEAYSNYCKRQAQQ
Procedure: as §1
Kinase-tagged T7 phage strains were prepared in an E. coli host derived from the BL21 strain. E. coli were grown to log-phase and infected with T7 phage and incubated with shaking at 32° C. until lysis. The lysates were centrifuged and filtered to remove cell debris. The remaining kinases were produced in HEK-293 cells and subsequently tagged with DNA for qPCR detection. Streptavidin-coated magnetic beads were treated with biotinylated small molecule ligands for 30 minutes at room temperature to generate affinity resins for kinase assays. The liganded beads were blocked with excess biotin and washed with blocking buffer (SeaBlock (Pierce), 1% BSA, 0.05% Tween 20, 1 mM DTT) to remove unbound ligand and to reduce non-specific binding. Binding reactions were assembled by combining kinases, liganded affinity beads, and test compounds in 1× binding buffer (20% SeaBlock, 0.17×PBS, 0.05% Tween 20, 6 mM DTT). Test compounds were prepared as 111× stocks in 100% DMSO. Kds were determined using an 11-point 3-fold compound dilution series with three DMSO control points. All compounds for Kd measurements are distributed by acoustic transfer (non-contact dispensing) in 100% DMSO. The compounds were then diluted directly into the assays such that the final concentration of DMSO was 0.9%. All reactions performed in polypropylene 384-well plate. Each was a final volume of 0.02 ml. The assay plates were incubated at room temperature with shaking for 1 hour and the affinity beads were washed with wash buffer (1×PBS, 0.05% Tween 20). The beads were then resuspended in elution buffer (1×PBS, 0.05% Tween 20, 0.5 μM nonbiotinylated affinity ligand) and incubated at room temperature with shaking for 30 minutes. The kinase concentration in the eluates was measured by qPCR.
Binding constants (Kds) were calculated with a standard dose-response curve using the Hill equation: Response=Background+[Signal−Background/i+(Kd^Hill Slope/Dose^Hill Slope)]. The Hill Slope was set to −1. Curves were fitted using a non-linear least square fit with the Levenberg-Marquardt algorithm.

stomach PDX = experiment: Activity against stomach PDX; type: cell-based; conditions: stomach PDX growth; summary of Table 23
Procedure: as §2, §3, §4

Kd (ADCK3) [µM] | Structure (SMILES) | No. responsive kinases (panel of 30 kinases) | IC50 (lung PDX) [µM] | IC50 (EN-11-0101) [µM] | IC50 (ST-02-0012) [µM] | IC50 (CO-04-0701) [µM] | IC50 (stomach PDX) [µM]
0.82 | O=c1cc(-c2ccc(CCCC[P+](c3ccccc3)(c3ccccc3)c3ccccc3)cc2)oc2c3c(ccc12)OCO3.[Br-] [SND123, 4-[4-(6-oxo-[1,3]dioxolo[4,5-h]chromen-8-yl)phenyl]butyl-triphenylphosphonium bromide] | 4 | < 20 | 1.8 | 0.3 | 3.4 | < 20
1.5 | O=c1cc(-c2ccc(CCCC[P+](c3ccccc3)(c3ccccc3)c3ccccc3)cc2)oc2c(O)c(O)ccc12 [SND118, 4-[4-(7,8-dihydroxy-4-oxo-chromen-2-yl)phenyl]butyltriphenyl-phosphonium bromide] | 1 |  |  |  |  | 
 | CCNC(=O)Oc1ccc2c(=O)cc(-c3ccc(CCCC[P+](c4ccccc4)(c4ccccc4)c4ccccc4)cc3)oc2c1OC(=O)NCC.[Br-] [SND124, 4-[4-[7,8-Bis(ethylcarbamoyloxy)-4-oxo-chromen-2-yl]phenyl]-butyltriphenylphosphonium bromide] |  | < 20 | 9.6 | 8.2 | 21.8 | < 20
 | CCNC(=O)Oc1ccc2c(=O)cc(-c3ccc(CCCC[P+](c4ccccc4)(c4ccccc4)c4ccccc4)cc3)oc2c1O.[Br-] [SND126A, 4-[4-[7-(Ethylcarbamoyloxy)-8-hydroxy-4-oxo-chromen-2-yl]phenyl]butyltriphenylphosphonium bromide] |  | < 20 | 10.2 | 8.9 | > 30 | < 20
0.62 | COc1c(O)ccc2c(=O)cc(-c3ccc(CCCC[P+](c4ccccc4)(c4ccccc4)c4ccccc4)cc3)oc12.[Br-] [SND140, (4-(4-(7-hydroxy-8-methoxy-4-oxo-4H-chromen-2-yl)phenyl)butyl)triphenylphosphonium bromide] | 4 | < 20 | 6.2 | 4.9 | 13.8 | < 20
